The source of these data is US10941121B2 (AZIENDA OSPEDALIERA UNIVERSITARIA SENESE, priority 2015, dated 2021).

Like-named read-outs stand apart in the source and are kept apart here.

In data set [1] the test system is Hepatitis C Virus (HCV) replicon system. The data set is described as follows: HCV replicon system, luciferase method in LucUbiNeo-ET cells. Particulars: for EC50: read-out: EC50 (μM) HCV replicon system. (A replicon is a self-replicating genome or part of one, used to study replication in cells.)
The next data set concerns Lunet/HuH7 cells. As to the kind of experiment: Cytotoxicity, MTT method in LUNET cells. It is filed as cell-based. The note with it: MMT method in LUNET cells; read-out: CC50 (μM) non-infected cells. Here is the method: (§1) Toxicity (CC50) was analysed in the Lunet/HuH7 cells by the addition of 10 μL of MTT (3-(4,5-dimethylthiazol-2-yl)-2,5-diphenyltetrazolium bromide) per well. After 4 h of incubation at 37° C. in a humidified atmosphere with 5% CO2, the amount of formazan produced was quantified spectrophotometrically at 550/620 nm (C. Pannecouque et al, Nature protocol 2008; 3 (3): 427-434). […] These assays were done in duplicate.
Background: Tetrazolium dyes change colour on reduction, which living cells bring about.

Data set [2] has as its target T1, DDX3 Helicase (Homo sapiens, UniProt O00571). The data set is described as follows: biochemical.
Data set [3] in a line: Cytotoxicity in Huh7 cells, nuclei counts. Particulars: human.
A short description of data set [4]: Cytotoxicity, MTT method in HuH7.5 cells. Format: cell-based. Particulars: human, non-infected, read-out: HCV CC50. As for the experimental part: After 4 h of incubation at 37° C. in a humidified atmosphere with 5% CO2, the amount of formazan produced was quantified spectrophotometrically at 550/620 nm (C. Pannecouque et al, Nature protocol 2008; 3 (3): 427-434). […] These assays were done in duplicate.

Data set [5] deals with HCV Jc1 (genotype 2a virus). As to the kind of experiment: HCV infectious cell culture system, NS5A immunostaining. Particulars: Hepatitis C virus, Huh7.5, read-out: HCV EC50.
A further data set in a line: Water Solubility Assay. Format: physicochemical. The note with it: thermodynamic from solid. As for the experimental part: Water Solubility Assay. Each solid compound (1 mg) was added to 1 mL of water. The samples were shaked in a shaker bath at room temperature for 24-36 h. The suspensions were filtered through a 0.45 μm nylon filter (Acrodisc), and the solubilized compound determined by LC-MS-MS assay. For each compound the determination was performed in triplicate.
For the quantification was used an LC-MS system consisted of a Varian apparatus (Varian Inc) including a vacuum solvent degassing unit, two pumps (212-LC), a Triple Quadrupole MSD (Mod. 320-LC) mass spectrometer with ES interface and Varian MS Workstation System Control Vers. 6.9 software. […] The flow rate was 0.2 mL min^−1 and injection volume was 5 μL. The instrument operated in positive mode and parameters were: detector 1850 V, drying gas pressure 25.0 psi, desolvation temperature 300.0° C., nebulizing gas 40.0 psi, needle 5000 V and shield 600 V. Nitrogen was used as nebulizer gas and drying gas. Collision induced dissociation was performed using Argon as the collision gas at a pressure of 1.8 mTorr in the collision cell.

A short description of data set [6]: Parallel Artificial Membrane Permeability Assay (PAMPA). Format: in vitro ADME. The note with it: for Papp at 5 h, 0.5 mM: PAMPA, read-out: PAMPA Papp *10^−6 (cm/s) GI; for PAMPA membrane retention (RM %): value in brackets in the PAMPA cell. Here is the method:
Parallel Artificial Membrane Permeability Assay (PAMPA). Donor solution (0.5 mM) was prepared by diluting 1 mM dimethylsulfoxide (DMSO) compound stock solution using phosphate buffer (pH 7.4, 0.025 M). Filters were coated with 5 μL of a 1% (w/v) dodecane solution of phosphatidylcholine prepared from CHCl3 solution 10% w/v, for intestinal permeability. Donor solution (150 μL) was added to each well of the filter plate. To each well of the acceptor plate were added […] (50% DMSO in phosphate buffer). All compounds were tested in three different plates on different days. The sandwich was incubated for 5 h at room temperature under gentle shaking. After the incubation time, the plates were separated, and samples were taken from both receiver and donor sides and analyzed using LC with UV detection at 280 nm.
LC analysis were performed with a Varian Prostar HPLC system (Varian Analytical Instruments, USA) equipped with a binary pump with a manual injection valve and model Prostar 325 UV-VIS Detector.
Permeability (Papp) for PAMPA was calculated according to the following equation, obtained from Wohnsland and Faller and Sugano et al. equation with some modification in order to obtain permeability values in cm s^−1,
where VA is the volume in the acceptor well, VD is the volume in the donor well (cm^3), A is the “effective area” of the membrane (cm^2), t is the incubation time (s) and r the ratio between drug concentration in the acceptor and equilibrium concentration of the drug in the total volume (VD+VA). Drug concentration is estimated by using the peak area integration.
Membrane retentions (%) were calculated according to the following equation: […]
where r is the ratio between drug concentration in the acceptor and equilibrium concentration, D, A, and Eq represented drug concentration in the donor, acceptor and equilibrium solution, respectively.
In general terms: The PAMPA barrier holds no transporters, so it reflects passive diffusion.

Data set [7] in a line: Cytotoxicity, MTT method in LUNET cells. Particulars: human; MMT method in LUNET cells; read-out: CC50 (μM) non-infected cells. Format: cell-based. Here is the method: as §1
The next data set deals with JEV strain (NJ2008). The data set is described as follows: JEV infectious cell culture system, plaque formation assay in BHK-21 cells. The note with it: Japanese encephalitis virus, BHK-21, read-out: JEV EC50.
Another data set can be described thus: in vitro. The note with it: hamster.
For data set [8], the target named is T1, DDX3 Helicase. The note with it: read-out: ID50 (μM) against DDX3 Helicase; n.a. = compound not active.
A short description of data set [9]: Cytotoxicity in PBMC, CellTiter 96 MTS viability assay. It is filed as cell-based. The note with it: human, human primary PBMCs.
The subject of the next data set is HIV (PBMC). As to the kind of experiment: HIV infectious cell culture system in PBMC, HIV-1 RNA in supernatant. The note with it: Human immunodeficiency virus 1, PBMC, 72 h, read-out: EC50 HIV (PBMC) 72 h.
In data set [10] the test system is HIV-1 wild-type reference strain NL4-3. As to the kind of experiment: HIV-1 phenotypic assay, MT-2 cells then TZM-bl cells, luciferase. It is filed as cell-based. Particulars: Human immunodeficiency virus 1, NL43; first cycle in MT-2 cells, additional round in TZM-bl cells.
Data set [11] has as its system human liver microsome (HLM). As to the kind of experiment: Microsomal Stability Assay. The note with it: human liver microsomes, 37 °C, 60 min, compound 50 μM; percentage of not metabolized compound.
The nature of data set [12]: Cytotoxicity in the JEV cell culture system. Particulars: hamster.
The subject of a further data set is HIV. Particulars: EI01D; read-out: EC50 inhibition of viral load of PBMCs infected with HIV; cited from earlier work.
The test system of a further data set is HIV-1 (IIIB). Particulars: read-out: EC50 replication of HIV-1 (IIIB) in MT4-cells; cited from earlier work.
The test system of another data set is MOLT-4 T-lymphocytic. The note with it: cited from earlier work.
In another data set the target is DDX3 (Homo sapiens, UniProt O00571). The note with it: literature values; cited from earlier work.
The mark [13] stands for this setting: DENV CC50, Huh7 cells, DENV experiment.
The mark [14] stands for this setting: WNV CC50, Huh7 cells, WNV experiment.
Where [15] appears, read: experimental aqueous solubility, read-out: LogS (converted).
The mark [16] stands for this setting: room temperature, 24-36 h, read-out: Aq. Solub.
[17] abbreviates: phosphatidylcholine in dodecane, pH 7.4, 5 h, room temperature.

T1 sequence (O00571 whole entry): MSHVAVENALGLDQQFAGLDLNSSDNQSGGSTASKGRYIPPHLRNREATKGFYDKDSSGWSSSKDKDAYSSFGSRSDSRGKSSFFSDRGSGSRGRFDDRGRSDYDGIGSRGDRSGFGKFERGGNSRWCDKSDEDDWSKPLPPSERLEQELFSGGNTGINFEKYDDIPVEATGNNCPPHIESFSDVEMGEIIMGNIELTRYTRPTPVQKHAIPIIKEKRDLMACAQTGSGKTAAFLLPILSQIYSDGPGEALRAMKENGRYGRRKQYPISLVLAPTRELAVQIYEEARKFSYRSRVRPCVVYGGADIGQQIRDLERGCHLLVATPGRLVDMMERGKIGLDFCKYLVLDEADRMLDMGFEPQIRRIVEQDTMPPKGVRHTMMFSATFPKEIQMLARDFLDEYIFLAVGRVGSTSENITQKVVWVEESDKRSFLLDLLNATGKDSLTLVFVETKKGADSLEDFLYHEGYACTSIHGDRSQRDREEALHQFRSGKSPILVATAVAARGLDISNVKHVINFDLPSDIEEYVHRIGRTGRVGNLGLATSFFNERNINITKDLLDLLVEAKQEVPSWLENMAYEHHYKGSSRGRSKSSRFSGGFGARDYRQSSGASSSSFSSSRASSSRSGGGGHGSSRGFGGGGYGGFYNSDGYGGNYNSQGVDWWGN
DDX3, sequence (O00571 whole entry): as above

As to `CCCCCCc1cn(-c2ccc(NC(=O)Nc3ccccc3C(F)(F)F)cc2)nn1` [Compound 8d], the EC50 (as a rule, the concentration needed to bring the measured effect to its halfway point) in data set [1] (luciferase method in LucUbiNeo-ET cells, 2 days) is 0.67 µM. In addition, the CC50 in the data set with Lunet/HuH7 cells came out at 290 µM.

On to `Cc1ccccc1NC(=O)Nc1ccc(-n2cc(CCC(C)C)nn2)cc1` [Compound 20b, 1-(4-(4-isopentyl-1H-1,2,3-triazol-1-yl)phenyl)-3-o-tolylurea], for which the IC50 on DDX3 Helicase [2] stood at 0.5 µM. Besides, the CC50 at 48 h in data set [3] (setting [13]) turned out to be 40.4 µM; in data set [3] (setting [14]) it was 62.3 µM. Besides, the CC50 in data set [4] turned out to be 209 µM; in [7] it was 189 µM. The EC50 stood at 30 µM in data set [5] and 0.8 µM in data set [1] (Hepatitis C virus, 48 h). Also, the solubility in the data set “Water Solubility Assay” (setting [15]) is less than 0.00251 µM; in “Water Solubility Assay” (setting [16]) it was less than 0.001 µg/mL. Further, in data set [6] (setting [17]), the Papp at 5 h, 0.5 mM came out at 1.93 ×10⁻⁶ cm/s. Moreover, the “PAMPA membrane retention (RM %)” value in [6] is given as 26.7%. The “activity against HCV, in words” value in data set [1] is “best activity”.

At DDX3 Helicase [2], `CCCCc1cn(-c2ccc(NC(=O)Nc3ccccc3C(F)(F)F)cc2)nn1` [Compound 22a, 1-(4-(4-butyl-1H-1,2,3-triazol-1-yl)phenyl)-3-(2-(trifluoromethyl)phenyl)urea] returned an IC50 of 0.3 µM. Also, the CC50 at 48 h worked out at 178 µM in [3] (setting [13]) and 145 µM in data set [3] (setting [14]). For the same compound, the figures for the CC50 in data set [4] and in data set [7] were 94.4 µM and 200 µM, respectively. The EC50 is 0.6 µM in [5] and 0.3 µM in data set [1] (Hepatitis C virus, 48 h). The solubility is 0.0372 µM in “Water Solubility Assay” (setting [15]) and 0.107 µg/mL in the data set “Water Solubility Assay” (setting [16]). Besides, the “PAMPA Papp *10^−6 (cm/s) GI” value in data set [6] (setting [17]) is given as 7.47 *10^−6 cm/s. The “PAMPA membrane retention (RM %)” value in [6] is 23.9%. The “activity against HCV, in words” value in [1] is on record as “best activity”.

Take `CCOP(=O)(OCC)OCCc1cn(-c2ccc(NC(=O)Nc3ccccc3C)cc2)nn1` [Compound 36, diethyl (2-(1-(4-(3-(o-tolyl)ureido)phenyl)-1H-1,2,3-triazol-4-yl)ethyl) phosphate]: the EC50 amounted to 21.1 µM in the data set on JEV strain (NJ2008) and 75 µM in data set [1] (Hepatitis C virus, 48 h). The CC50 in “in vitro” is greater than 50 µM; in [7], greater than 150 µM. Also, the IC50 on DDX3 Helicase [8] is 0.9 µM.

In the case of `CCCCn1nnc(-c2ccc(NC(=O)Nc3ccccc3C)cc2)n1` [Compound 49, 1-(4-(2-butyl-2H-tetrazol-5-yl)phenyl)-3-(o-tolyl)urea], the EC50 in the data set with JEV strain (NJ2008) worked out at 7.1 µM; in the data set with HIV (PBMC) it was 9.5 µM; in data set [10], 5.2 µM; in [1] (Hepatitis C virus, 48 h) it was 7.16 µM. Besides, the IC50 at DDX3 Helicase [2] was 4.9 µM. The compound further had a CC50 at 24 h in [9] (24 h) greater than 1000 µM. Also, the CC50 at 48 h in data set [9] (48 h) was greater than 1000 µM. Also, in data set [9], the CC50 at 72 h is greater than 1000 µM. The “Metabolic stability (Sability %)” value in [11] is 95.6%. For the same compound, the CC50 in [12] was greater than 50 µM; in data set [7], 11.2 µM. For the same compound, the solubility in “Water Solubility Assay” (setting [15]) was less than 0.00316 µM; in “Water Solubility Assay” (setting [16]), less than 0.001 µg/mL. The Papp at 5 h, 0.5 mM in data set [6] (setting [17]) was determined as 7.57 ×10⁻⁶ cm/s. In addition, the “PAMPA membrane retention (RM %)” value in [6] came to 24.8%.

Regarding `CCCCc1cn(-c2ccc(NC(=O)Nc3ccccc3C(F)(F)F)cc2F)nn1` [Compound 81, 1-(4-(4-butyl-1H-1,2,3-triazol-1-yl)-3-fluorophenyl)-3-(2-(trifluoromethyl)phenyl)urea], the IC50 at DDX3 Helicase [2] came to 1 µM. Further, in data set [11], the “Metabolic stability (Sability %)” value was 94%. The solubility in “Water Solubility Assay” (setting [15]) was 0.398 µM; in the data set “Water Solubility Assay” (setting [16]), 80.1 µg/mL. Besides, the Papp at 5 h, 0.5 mM in data set [6] (setting [17]) came out at 7.22 ×10⁻⁶ cm/s. The “PAMPA membrane retention (RM %)” value in [6] is 30.4%. Besides, the EC50 in data set [1] (Hepatitis C virus, 48 h) amounted to 1.99 µM. Moreover, the CC50 in data set [7] stood at 74.2 µM.

For `Cc1ccccc1NC(=O)Nc1cccc([N+](=O)[O-])c1` [EI01D, reference compound], the EC50 in the data set with JEV strain (NJ2008) was 10 µM; with HIV, 10 µM; with HIV (PBMC), 10 µM; in [1] (Hepatitis C virus, 48 h) it was greater than 86 µM. For the same compound, the CC50 at 72 h in data set [9] is 100 µM. Further, the values for the CC50 in [12] and in data set [7] were greater than 50 µM and 86 µM, respectively. Moreover, on DDX3 Helicase [8], the IC50 was 1 µM. Further, in [1], the “activity against HCV, in words” value was “completely inactive”.

Take `O=C(CN1C(=O)/C(=C/c2cccc(Br)c2)SC1=S)Nc1ccccc1O` [FE15]: the EC50 in the data set on HIV-1 (IIIB) is 86.7 µM. Also, in the data set on MOLT-4 T-lymphocytic, the CC50 was greater than 200 µM. Further, the Ki (commonly the dissociation constant of the complex between target and ligand, obtained from inhibition or displacement) on DDX3 was 5.4 µM.
